Molecules are shown by their SMILES. Where only a bound is given, the exact number is not on record here.

Data on 1 compound can be found in patent US4822791A, “Pharmaceutical compositions of-2,2-1,1-[bis-2,2'-(3,1-benzoxazin-4-one)9 ethylenes” (priority 1984, dated 1989).

In data set [1] the target is T1, hyaluronidase (Bos taurus, UniProt Q2YDK3).
T1 sequence (Q2YDK3 36-553): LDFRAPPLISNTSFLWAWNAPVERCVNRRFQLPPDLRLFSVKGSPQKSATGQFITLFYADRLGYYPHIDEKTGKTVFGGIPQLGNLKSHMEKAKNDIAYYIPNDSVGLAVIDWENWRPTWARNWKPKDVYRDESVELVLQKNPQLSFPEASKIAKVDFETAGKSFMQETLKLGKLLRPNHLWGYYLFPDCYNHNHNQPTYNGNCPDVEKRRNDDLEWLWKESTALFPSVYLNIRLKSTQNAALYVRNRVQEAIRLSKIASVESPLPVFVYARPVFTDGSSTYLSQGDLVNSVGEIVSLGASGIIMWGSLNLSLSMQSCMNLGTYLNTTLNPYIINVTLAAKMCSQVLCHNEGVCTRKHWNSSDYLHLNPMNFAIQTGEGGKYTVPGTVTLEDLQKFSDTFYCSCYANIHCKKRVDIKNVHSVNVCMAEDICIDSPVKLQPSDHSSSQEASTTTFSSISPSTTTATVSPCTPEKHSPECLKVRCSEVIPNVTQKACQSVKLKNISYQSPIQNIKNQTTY
Put plainly: Anti-hyaluronidase activity (modified Morgan-Elson method). It counts as biochemical. As to conditions: hyaluronidase 340NF unit/ml; activating agent Compound 48/80 or CaCl2; read-out: IC50.
Protocol: A buffer soluticn of hyaluronidase (0.1 ml) was taken in a test tube and 0.2 ml each of the buffer solution of various compounds in various concentrations was added, and the mixture was preincubated at 37° C. for 20 minutes. Then, an activating agent (Compound 48/80 or CaCl2) (0.2 ml) was added to make the total amount 0.5 ml, which was incubated at 37° C. for 20 minutes. Then, potassium hyaluronate buffer solution (0.5 ml) was added, and the mixture was incubated at 37° C. for 40 minutes. After cooling, the mixture was treated with aqueous solution of 0.4N NaOH (0.2 ml) and neutralized to stop the reaction. The resulting product was subjecred to measurement of OD585 by the modified Morgan-Elson Method. […] (The final ccncentration of hyaluronidase was 340NF unit/ml.) [formula]

The test system of data set [2] is experimental ulcer model (Shay). The data set can be described thus: Anti-ulcer activity in experimental ulcer model (Shay). In kind it is in vivo, Wistar strain male rats. The protocol:
Using 5 eight-week old Wistar strain male rats of 1 group, the rats were previously fasted for […]. The compound of an amount proportionate to the body weight based on the body weight after fasting was administered intraduodenally or intraperitoneally.
Each test compound was evenly suspended or dissolved in an aqueous solution of 0.5% CMC ccntaining 0.1% Tween 80, and administered at the rate of 0.5 ml per 100 g of body weight of the animal. To the controls, only the solvent was administered.
Test was carried out in accordance with Shay's method. After 48 hours' fasting, 5 animals per group were subjected to laparotomy under ether anesthesia, the tract between pylorus of stomach and duodenum was ligated, and the solution of the compound was administered intraduodenally (id) or intraperitoneally (ip), followed by suturing the laparotomy part. Eight hours after administration of the compound liquid, each animal was sacrificed by ether anesthesia and stomach was removed. Then, evaluation on the ulcer condition on the inner surface of stomach, and determination of the amount of gastric juice, of acidity by alkali titration, and of pepsin titer based on substrate of hemoglovin were made on the stored gastric juice. With regard to the acidity, gastric juice amount, and pepsin titer, the results were shown in inhibition rate (%) based on the average value of the control groups.

Data set [3] is described as follows: Acute toxicity LD50 in mice (Test Example 8). As to conditions: mouse, in vivo, one week, Probit method. The protocol:
(§1) ddy-Strain mice (male) and Wistar strain rats were used to obtain LD50 values.
(§2) According to the ordinary procedure, suspension or solution of test sample was administered to the animals. From the number of the died animals until one week after the administration, LD50 values were obtained by Probit method.

A short description of data set [4]: Acute toxicity LD50 in rats (Test Example 8). As to conditions: rat, in vivo, po; one week; Probit method; read-out: LD50 value (mg/kg body weight) Rat p.o. The method, then:
as §1, §2

The IC50 is the point on the concentration scale where inhibition reaches its midpoint. For the compound `COc1ccc(C=C(C(=O)Nc2ccccc2C(=O)O)C(=O)Nc2ccccc2C(=O)O)cc1OC` [Compound 20, 2,2'-[[2-(3,4-dimethoxy)phenylmethylene-1,3-dioxo-1,3-propanediyl]diimino]bisbenzoic acid], the IC50 in data set [1] worked out at 40 µM. In addition, the “Inhibition % Gastric Acidity” value in data set [2] (id 100 mg/kg) stood at 64.5%; in data set [2] (id 200 mg/kg), 99.5%; in data set [2] (ip 10 mg/kg) it was 52.3%; in data set [2] (ip 50 mg/kg) it was 88.0%. For the same compound, the “Inhibition % secretion amount of gastric juice” value in data set [2] (id 100 mg/kg) is on record as 28.1%; in data set [2] (id 200 mg/kg), 59.0%; in data set [2] (ip 10 mg/kg) it was 26.3%; in data set [2] (ip 50 mg/kg), 70.9%. Moreover, the “Inhibition % total pepsin titer” value in data set [2] (id 100 mg/kg) was determined as 42.5%; in data set [2] (id 200 mg/kg), 69.3%; in data set [2] (ip 10 mg/kg) it was 31.4%; in data set [2] (ip 50 mg/kg), 60.7%. Further, the LD50 at 168 h is 225 mg/kg in data set [3] (iv, read-out: LD50 value (mg/kg body weight) Mouse i.v.); more than 10000 mg/kg in data set [3] (po, read-out: LD50 value (mg/kg body weight) Mouse p.o.); more than 10000 mg/kg in data set [4].
